Earlier results, collected in US20210077498A1, “TRANSIENT PROTECTION OF HEMATOPOIETIC STEM AND PROGENITOR CELLS AGAINST IONIZING RADIATION” (G1 Therapeutics, Inc., priority 2015, published 2021).

Key:
[1] = tested on: CDK4/6-dependent cell lines; conditions: cited from earlier work
[2] = tested on: CDK4/6 independent Rb-null melanoma cell line A2058; conditions: cited from earlier work
[3] = tested on: mice exposed to peri-lethal and lethal TBI; conditions: compared to untreated controls; cited from earlier work
[4] = in vivo; cited from earlier work

O=C1NC(=O)c2c1c1c3ccccc3[nH]c1c1[nH]c3cc(Br)ccc3c21 [Formula 2BrIC, 2-bromo-12,13-dihydro-5H-indolo[2,3-a]pyrrolo[3,4]carbazole-5,6-dione]
IR protection [1]: exhibited IR protective characteristics
G1 arrest [2]: did not G1 arrest
protection from IR exposure [2]: failed to protect
HSPC protection and survival after TBI [3]: protect HSPCs and improve survival of mice
bioavailability [4]: restricted bioavailability
